Source: patent US6348445B1, “Biologically active peptides with reduced toxicity in animals and a method for preparing same” (priority 1992, dated 2002)
Read-outs that look alike come from different tables or passages of the source. Where no end group is shown, it is not given here.

What was measured:
[1] = tested on: P. aeruginosa strain ATCC 27853; type: cell-based; settings: ATCC 27853
In short: (§1)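 Broth microdilution per NCCLS M7-T2: final peptide levels 0.25 to 256 μg/ml (twofold steps), inoculum 1-5×10^5 CFUs/ml in full-strength Mueller Hinton broth. MIC read as lowest concentration leaving the well clear after 16-20 hours at 37° C.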

[2] = tested on: E. coli ATCC strain 25922; test: Minimal Inhibitory Concentration, microtiter broth dilution; type: cell-based; settings: ATCC strain 25922
In short: as §1

[3] = MTD of repeat-dose intraperitoneal administration; type: in vivo, SCID mice; settings: for MTD at 504 h: male, SCID (Fox Chase C.B-17/IcrTac-scidfDF), mouse, in vivo, ip
Method: Determinations of a maximal tolerated dose (MTD) of repeat-dose intraperitoneal (i.p.) administration of MSI-344 or MSI-1857 in 60 SCID mice were done. Mice were injected with various doses of MSI-344 or MSI-1857 twice or thrice per week. Survival and body weight were monitored. On a twice per week dosing schedule, the MTDs of MSI-344 and MSI-1857 were 12 and 134 mg/kg/week, respectively. […] On a thrice per week dosing schedule, no deaths occurred in any groups, with high dose groups of MSI-344 and MSI-1857 receiving 90 mg/kg/week and […], respectively. A transient body weight loss was seen after initial dosing in most MSI-344 and MSI-1857 groups. No body weight loss greater than 6% occurred in any group on the thrice per week dosing schedule.
To determine estimates of MTDs of MSI-344 and MSI-1857 when administered intraperitoneally on repeat-dose regimens in SCID mice. The selection of SCID mice was based on the future plans of using this strain as host for xenograft human tumor efficacy models, and a pre-requisite for determining MTD for chronic administration that may be used during the efficacy model.
SCID mice are immunocompromised and therefore they were housed and handled in sterile environments. They had access to sterile water and sterilized chow ad lib.
A 1 mg/mL solution of MSI-344 was made in saline (0.9% sodium chloride injection USP, Abbott, North Chicago, Ill.) corrected for peptide content. Solutions of MSI-344 at concentrations of 0.6, 0.3, and 0.1 mg/mL were made by diluting the 1 mg/mL solution using saline as diluent. A 10 mg/mL solution of MSI-1857 was made in saline.
Solutions of MSI-1857 at concentrations of 6.7, 3.3, 3, 2, and 1 mg/mL were made by diluting the 10 mg/mL solution using saline as diluent.
Mice (four mice per dose group) were intraperitoneally administered MSI-344 or MSI-1857 using an injection volume of 10 mL/kg of the appropriate solution concentration on a twice per week (Groups 1 through 7) or thrice per week (Groups 8 through 15) dosing schedule every week for 20 weeks. Survival was monitored daily and body weights were recorded three times per week An interim analysis was performed at 3 weeks and the results of this interim analysis is presented in the present report.

With GIGKFLKKAKKFGKAFVKILKK [MSI-344] the “MIC P. aeruginosa ATCC 27853” value [1] was 16 µg/mL, the “MIC E. coli ATCC 25922” value [2] was 8 µg/mL and the “effect of initial dosings on body weight” value ([3]; all surviving groups except the low dose group on the thrice-per-week schedule) was “dose-dependent transient body weight loss”. The “MTD, thrice per week dosing schedule” value ([3]; i.p., SCID mice, interim analysis at 3 weeks) was “greater than or equal to 18 mg/kg/week”, the MTD at 504 h ([3]; SCID mice, interim analysis at 3 weeks, read-out: MTD, thrice per week dosing schedule) was no less than 2.57 mg/kg/day and the MTD at 504 h ([3]; SCID mice, interim analysis at 3 weeks, read-out: MTD, twice per week dosing schedule (converted)) was 1.71 mg/kg/day.
